Source: article PMC7530726, “A structure-based computational workflow to predict liability and binding modes of small molecules to hERG” (Scientific Reports, 2020)
Several values for one entry are separate records, joined by “and”; a condition that tells them apart may be missing. Equal entries are not always repeated. Where two headings read alike, the source gives them in different places.

Tests used:
[1] = system: serotonin 5-hydroxytryptamine receptor 4 (5HT-4); conditions: cited from earlier work
[2] = molecular target: T1, hERG Y652A (Homo sapiens, UniProt Q12809, Y652A); experiment: in vitro; conditions: pH 7.4, Percent current inhibition hERG Y652A
T1 sequence (Q12809 whole entry Y652A): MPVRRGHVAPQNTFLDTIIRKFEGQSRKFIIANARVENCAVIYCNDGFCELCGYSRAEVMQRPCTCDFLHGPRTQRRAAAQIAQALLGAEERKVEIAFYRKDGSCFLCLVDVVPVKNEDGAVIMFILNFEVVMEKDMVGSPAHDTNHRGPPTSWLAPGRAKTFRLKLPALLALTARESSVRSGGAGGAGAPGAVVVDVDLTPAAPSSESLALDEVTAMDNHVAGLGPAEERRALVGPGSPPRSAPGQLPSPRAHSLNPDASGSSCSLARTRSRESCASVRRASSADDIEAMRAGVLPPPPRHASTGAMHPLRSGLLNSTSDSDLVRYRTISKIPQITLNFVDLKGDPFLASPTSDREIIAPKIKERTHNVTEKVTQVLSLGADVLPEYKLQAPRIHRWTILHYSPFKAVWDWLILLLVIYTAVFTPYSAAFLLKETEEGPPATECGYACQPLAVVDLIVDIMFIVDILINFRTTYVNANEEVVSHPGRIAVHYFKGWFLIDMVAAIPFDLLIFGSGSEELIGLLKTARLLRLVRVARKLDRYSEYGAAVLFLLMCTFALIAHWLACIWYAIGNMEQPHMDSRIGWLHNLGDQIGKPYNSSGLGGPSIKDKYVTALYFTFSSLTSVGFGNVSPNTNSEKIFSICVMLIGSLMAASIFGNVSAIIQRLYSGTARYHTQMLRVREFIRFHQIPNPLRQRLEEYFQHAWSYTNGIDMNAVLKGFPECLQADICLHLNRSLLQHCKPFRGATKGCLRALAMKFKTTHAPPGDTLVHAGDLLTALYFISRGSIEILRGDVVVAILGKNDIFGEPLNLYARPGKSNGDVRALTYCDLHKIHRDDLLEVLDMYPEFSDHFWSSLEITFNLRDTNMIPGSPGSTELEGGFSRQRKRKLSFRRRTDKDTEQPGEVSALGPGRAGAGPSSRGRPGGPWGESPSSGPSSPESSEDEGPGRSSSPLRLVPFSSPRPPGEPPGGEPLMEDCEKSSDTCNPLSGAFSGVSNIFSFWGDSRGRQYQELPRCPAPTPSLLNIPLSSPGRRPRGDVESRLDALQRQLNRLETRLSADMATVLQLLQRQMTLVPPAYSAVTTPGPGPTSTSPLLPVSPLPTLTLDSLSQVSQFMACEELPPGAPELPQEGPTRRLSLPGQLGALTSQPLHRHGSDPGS

[3] = molecular target: T2, hERG F656A (Homo sapiens, UniProt Q12809, F656A); experiment: in vitro
T2 sequence (Q12809 whole entry F656A): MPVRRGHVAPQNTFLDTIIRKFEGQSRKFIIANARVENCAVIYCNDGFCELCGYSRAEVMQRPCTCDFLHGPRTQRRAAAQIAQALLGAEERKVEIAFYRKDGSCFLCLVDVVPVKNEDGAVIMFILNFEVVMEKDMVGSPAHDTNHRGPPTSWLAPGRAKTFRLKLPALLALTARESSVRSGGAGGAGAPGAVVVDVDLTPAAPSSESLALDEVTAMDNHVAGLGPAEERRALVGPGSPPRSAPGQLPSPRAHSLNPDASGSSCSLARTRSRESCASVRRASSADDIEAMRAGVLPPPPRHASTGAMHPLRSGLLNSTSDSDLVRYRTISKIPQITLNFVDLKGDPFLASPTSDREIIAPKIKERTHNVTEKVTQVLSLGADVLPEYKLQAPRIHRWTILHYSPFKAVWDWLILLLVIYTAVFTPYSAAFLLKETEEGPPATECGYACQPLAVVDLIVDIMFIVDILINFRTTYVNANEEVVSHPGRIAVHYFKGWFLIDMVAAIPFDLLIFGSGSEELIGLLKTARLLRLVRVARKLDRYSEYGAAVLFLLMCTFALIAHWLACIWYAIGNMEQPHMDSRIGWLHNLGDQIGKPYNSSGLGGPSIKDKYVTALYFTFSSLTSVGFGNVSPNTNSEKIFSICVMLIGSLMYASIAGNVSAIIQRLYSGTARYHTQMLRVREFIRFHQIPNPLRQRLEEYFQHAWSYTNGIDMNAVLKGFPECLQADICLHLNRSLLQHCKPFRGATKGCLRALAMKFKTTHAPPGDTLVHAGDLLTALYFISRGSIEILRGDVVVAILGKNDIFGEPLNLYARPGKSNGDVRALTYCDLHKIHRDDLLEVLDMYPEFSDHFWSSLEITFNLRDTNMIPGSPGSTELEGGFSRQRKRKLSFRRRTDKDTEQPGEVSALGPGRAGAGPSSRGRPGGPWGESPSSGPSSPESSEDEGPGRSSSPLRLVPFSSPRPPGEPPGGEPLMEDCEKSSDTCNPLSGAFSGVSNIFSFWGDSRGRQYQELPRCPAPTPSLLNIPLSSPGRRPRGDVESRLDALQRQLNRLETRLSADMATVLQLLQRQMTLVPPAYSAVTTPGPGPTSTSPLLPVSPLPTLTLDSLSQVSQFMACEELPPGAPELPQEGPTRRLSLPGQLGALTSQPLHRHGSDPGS

[4] = system: hERG; conditions: cited from earlier work
[5] = molecular target: T3, WT hERG (Homo sapiens, UniProt Q12809); experiment: Predictor hERG Fluorescence Polarization Assay kit; type: binding
T3 construct: purchased Life Technologies
T3 sequence (Q12809 whole entry): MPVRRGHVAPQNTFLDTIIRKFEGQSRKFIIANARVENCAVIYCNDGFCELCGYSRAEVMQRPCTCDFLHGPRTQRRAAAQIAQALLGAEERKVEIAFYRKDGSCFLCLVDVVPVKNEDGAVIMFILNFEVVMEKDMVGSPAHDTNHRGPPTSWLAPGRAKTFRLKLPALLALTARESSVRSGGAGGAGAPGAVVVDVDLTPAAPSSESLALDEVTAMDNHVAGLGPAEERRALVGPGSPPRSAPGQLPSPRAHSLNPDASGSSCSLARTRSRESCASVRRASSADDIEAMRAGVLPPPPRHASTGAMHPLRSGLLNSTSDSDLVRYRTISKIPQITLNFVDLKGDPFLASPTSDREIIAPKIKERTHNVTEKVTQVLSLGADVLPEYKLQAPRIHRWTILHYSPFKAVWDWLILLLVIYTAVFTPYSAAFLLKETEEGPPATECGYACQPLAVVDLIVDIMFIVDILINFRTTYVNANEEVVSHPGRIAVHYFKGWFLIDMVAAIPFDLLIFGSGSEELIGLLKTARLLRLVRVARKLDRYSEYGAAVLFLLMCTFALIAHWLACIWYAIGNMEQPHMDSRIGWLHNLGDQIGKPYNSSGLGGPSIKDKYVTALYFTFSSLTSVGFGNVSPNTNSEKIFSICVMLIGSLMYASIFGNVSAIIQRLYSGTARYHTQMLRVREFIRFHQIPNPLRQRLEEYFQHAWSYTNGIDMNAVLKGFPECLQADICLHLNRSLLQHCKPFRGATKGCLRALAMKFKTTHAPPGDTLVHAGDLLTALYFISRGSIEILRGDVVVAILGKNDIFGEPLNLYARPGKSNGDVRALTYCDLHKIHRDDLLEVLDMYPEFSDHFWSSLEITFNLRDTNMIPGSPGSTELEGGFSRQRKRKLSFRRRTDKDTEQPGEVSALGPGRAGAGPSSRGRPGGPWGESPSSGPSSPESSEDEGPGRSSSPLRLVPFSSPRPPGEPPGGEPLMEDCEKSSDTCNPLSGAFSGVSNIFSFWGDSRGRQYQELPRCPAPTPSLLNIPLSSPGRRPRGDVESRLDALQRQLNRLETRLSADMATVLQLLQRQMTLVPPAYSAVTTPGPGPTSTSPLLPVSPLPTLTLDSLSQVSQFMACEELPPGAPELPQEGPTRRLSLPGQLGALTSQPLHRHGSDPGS
Experimental: All measurements were made according to the manufacturer’s instruction. Fluorescence polarization was measured using PerkinElmer EnVision® Multilabel reader (PerkinElmer, Woodbridge, ON, Canada).

[6] = molecular target: T4, hERG WT (Homo sapiens, UniProt Q12809); conditions: 1 µM
T4 sequence (Q12809 whole entry): as above

[7] = molecular target: T1, hERG Y652A; conditions: 1 µM
[8] = molecular target: T2, hERG F656A; conditions: 1 µM
[9] = molecular target: T4, hERG WT; experiment: in vitro; conditions: Percent current inhibition hERG WT
[10] = molecular target: T4, hERG WT
[11] = molecular target: T1, hERG Y652A; experiment: Whole-cell patch clamp (automated), HEK cells stably expressing hERGY652A
[12] = molecular target: T2, hERG F656A; experiment: Whole-cell patch clamp (manual, 135 mM K+), HEK cells stably expressing hERGF656A
[13] = pH 7.4, Percent current inhibition hERG F656A
[14] = pH 7.4, reduction in the inhibition of F656A mutant when compared to the WT
[15] = read-out: hERG IC50 from literature, Patch clamp HEK293 cells @ 23 ± 1 °C, ref Toga et al.
[16] = read-out: hERG IC50 from literature, Patch clamp HEK293 cells @ 34 ± 1 °C, ref Wu et al.

Q: What does the source list for `COc1cc(N)c(Cl)cc1C(=O)NC1CCN(CCCOc2ccc(F)cc2)CC1OC` (centres unmarked) [Cisapride]?
A: binding affinity to 5HT-4 (agonist) [1]: ~ 14 nM; inhibition at 3 µM [2]: 39.1%; inhibition at 5 µM [2]: 57.7%; inhibition at 10 µM [2]: 91.7%; inhibition at 3 µM [3, 13]: 38.7%; inhibition at 5 µM [3, 13]: 59.6%; inhibition at 10 µM [3, 13]: 75.5%; inhibition at 1 µM [3, 14]: ~80%; IC50 ([4]; read-out: hERG1 channel inhibition affinity): […]; IC50 [4, 15]: […]

Q: Which results are given for `Cc1cccc(C)c1NC(=O)C1CCCCN1C` (centres unmarked) [Mepivacaine]?
A: IC50 ([4]; read-out: hERG IC50): > 100 µM and 156 µM; IC50 [4, 16]: 156 µM

Q: For `CCOc1cc(N)c(Cl)cc1C(=O)NCC1CN(Cc2ccc(F)cc2)CCO1` (centres unmarked) [Mosapride], which “affinity to WT hERG in FP assay” value [5] is on record?
A: much weaker affinity

Q: And the “Percent current inhibition hERG WT” value [6]?
A: very small percentage

Q: What about the “Percent current inhibition hERG Y652A” value [7] of the same compound?
A: very small percentage

Q: What about the “Percent current inhibition hERG F656A” value [8] of the same compound?
A: very small percentage

Q: What about the inhibition at 1 µM [9] of the same compound?
A: 13.1%

Q: And the inhibition at 3 µM [9]?
A: 33.5%

Q: And the inhibition at 5 µM [9]?
A: 45%

Q: And the inhibition at 10 µM [9]?
A: 68.7%

Q: What about the inhibition at 30 µM [9] of the same compound?
A: 92.5%

Q: And the inhibition at 1 µM [2]?
A: 7.13%

Q: What about the inhibition at 3 µM [2] of the same compound?
A: 13.6%

Q: And the inhibition at 5 µM [2]?
A: 20.6%

Q: What about the inhibition at 10 µM [2] of the same compound?
A: 31.3 ± 3.65%

Q: What about the inhibition at 30 µM [2] of the same compound?
A: 66.8%

Q: And the inhibition at 1 µM [3, 13]?
A: 11%

Q: What about the inhibition at 3 µM [3, 13] of the same compound?
A: 12.4%

Q: And the inhibition at 5 µM [3, 13]?
A: 16%

Q: What about the inhibition at 10 µM [3, 13] of the same compound?
A: 25.7%

Q: What about the inhibition at 30 µM [3, 13] of the same compound?
A: 34.4%

Q: What about the inhibition at 100 µM [3, 13] of the same compound?
A: 40.2%

Q: What about the inhibition at 1 µM [3, 14] of the same compound?
A: 2%

Q: And the IC50 [4, 15]?
A: 4.8 µM

Q: And the IC50 [10]?
A: 5.36 µM

Q: What about the IC50 [11] of the same compound?
A: 17.4 µM

Q: With `Cc1cccc(C)c1NC(=O)CC12CCCN1CCC2` [Pilsicainide] as the compound, how does the IC50 ([4]; read-out: hERG IC50) read?
A: < 30 µM and ~20 µM

Q: And the IC50 [4, 16]?
A: 20.4 µM

Q: For `COc1ccccc1OCC(O)CN1CCN(CC(=O)Nc2c(C)cccc2C)CC1` (centres unmarked) [Ranolazine], which IC50 ([4]; read-out: hERG IC50 from literature, Patch clamp HEK293 cells @ 37 ± 1 °C, ref Du et al.) is on record?
A: […]

Q: And the “Percent current inhibition hERG WT” value ([10]; 100 µM)?
A: 97.36% ± 0.89

Q: What about the inhibition at 10 µM ([10]; human, HEK cells stably expressing hERG WT, Percent current inhibition hERG WT, 10 µM) of the same compound?
A: 42.3%

Q: What about the inhibition at 30 µM ([10]; human, HEK cells stably expressing hERG WT, Percent current inhibition hERG WT, 30 µM) of the same compound?
A: 77%

Q: What about the inhibition at 100 µM ([10]; human, HEK cells stably expressing hERG WT, Percent current inhibition hERG WT, 100 µM) of the same compound?
A: ~90%

Q: And the inhibition at 300 µM ([10]; human, HEK cells stably expressing hERG WT, Percent current inhibition hERG WT, 300 µM)?
A: 100%

Q: And the inhibition at 500 µM ([10]; human, HEK cells stably expressing hERG WT, Percent current inhibition hERG WT, 500 µM)?
A: 100%

Q: And the “Percent current inhibition hERG Y652A” value ([11]; 100 µM)?
A: 24.62% ± 2.64

Q: And the inhibition at 10 µM ([11]; human, HEK cells stably expressing hERG Y652A, pH 7.4, Percent current inhibition hERG Y652A, 10 µM)?
A: 2.4%

Q: What about the inhibition at 30 µM ([11]; human, HEK cells stably expressing hERG Y652A, pH 7.4, Percent current inhibition hERG Y652A, 30 µM) of the same compound?
A: 10.1%

Q: What about the inhibition at 100 µM ([11]; human, HEK cells stably expressing hERG Y652A, pH 7.4, Percent current inhibition hERG Y652A, 100 µM) of the same compound?
A: 25%

Q: And the inhibition at 300 µM ([11]; human, HEK cells stably expressing hERG Y652A, pH 7.4, Percent current inhibition hERG Y652A, 300 µM)?
A: 64%

Q: What about the inhibition at 500 µM ([11]; human, HEK cells stably expressing hERG Y652A, pH 7.4, Percent current inhibition hERG Y652A, 500 µM) of the same compound?
A: 84.6%

Q: What about the “Percent current inhibition hERG F656A” value ([12]; 100 µM) of the same compound?
A: 21.37% ± 7.80

Q: What about the inhibition at 10 µM ([12]; human, HEK cells stably expressing hERG F656A, pH 7.4, Percent current inhibition hERG F656A, 10 µM) of the same compound?
A: 4.39%

Q: What about the inhibition at 30 µM ([12]; human, HEK cells stably expressing hERG F656A, pH 7.4, Percent current inhibition hERG F656A, 30 µM) of the same compound?
A: 10.9%

Q: And the inhibition at 300 µM ([12]; human, HEK cells stably expressing hERG F656A, pH 7.4, Percent current inhibition hERG F656A, 300 µM)?
A: 37.7%

Q: And the inhibition at 500 µM ([12]; human, HEK cells stably expressing hERG F656A, pH 7.4, Percent current inhibition hERG F656A, 500 µM)?
A: 49.6%
